Assays:
diabetic mice [1] = assay: Barnes maze test (learning and memory) in STZ Type I diabetes model; format: in vivo, Swiss Webster mice; settings: for Barnes maze long-term retention / Barnes maze other parameters (initial acquisition, reinforced learning, short-term retention): Part A (treatment from onset)
Protocol: (§1) Adult female Swiss Webster mice (20-25 grams) were used in the study. They were maintained in a room at 65-82° F. and relative humidity of 30-70% illuminated with fluorescent lighting on a 12 hour light/dark cycle. The animals were maintained 2-3 per cage with free access to dry food and municipal water. Diabetes was induced following an overnight fast by injection of streptozotocin (STZ) (90 mg/kg ip in 0.9% sterile saline) on two consecutive days. Hyperglycemia was confirmed 4 days later in a sample of blood obtained by tail prick using a strip operated reflectance meter. Animals were observed daily and weighed weekly during the study period.
(§2) Test compounds were evaluated, with treatment begun immediately after onset of diabetes (Part A) or after 7-8 weeks of diabetes in Part B. Each group started with 10 animals per group to allow identification of differences in nerve conduction, paw thermal latency and intra-epidermal nerve fiber (IENF) density between control and diabetic mice, assuming the routinely observed 20-40% difference between groups and measurement coefficients of variation of 10-20%.
(§3) PART A (onset) • Control+vehicle • Diabetic+vehicle • Diabetic+insulin (by implanted pellet) • Diabetic+NSI-158 • Diabetic+NSI-189 • Diabetic+NSI-190
(§4) PART B (7-8 weeks) • Control+vehicle • Diabetic+vehicle • Diabetic+NSI-150 • Diabetic+NSI-182 • Diabetic+NSI-183 • Diabetic+NSI-189
(§5) Insulin was supplied by an implanted insulin pellet replaced monthly as needed (LinBit™, LinShin, Canada) and the test compounds were supplied by oral gavage. The following measurements were made 24 hours after delivery of test compound: • Body weight: Weekly from onset of diabetes; • Blood glucose: At onset of diabetes and monthly thereafter; • MNCV (large motor fiber function): Before onset of diabetes and monthly thereafter; • Paw tactile response threshold (large sensory fiber function) by manual von Frey filament: Monthly from onset of diabetes; • Paw thermal response latency (small sensory fiber): Monthly from onset of diabetes; • Corneal nerve density (small sensory fiber structure): Images were collected before onset of diabetes and monthly thereafter; • Barnes maze performance (learning and memory): After 10 weeks of diabetes and at study termination; and • Object recognition test (memory): After 10 weeks of diabetes and at study termination.
(§6) The various procedures set forth above are those described in the art as follows: • Jolivalt, C. G., et al., Exp. Neurol. (2010) 223:422-431; • Jolivalt, C. G., et al., Diabetes Obes. Metab. (2011) 13:990-1000; • Jolivalt, C. G., et al., Neuroscience (2012) 202:405-412; and • Chen, D. K., et al., J. Peripher. Nerv. Syst. (2013) 18:306-315.

diabetic mice [2] = assay: Nerve density in the sub-epidermal nerve plexus in STZ Type I diabetes model; format: in vivo, Swiss Webster mice
Protocol: as §1, §2, §3, §4, §5, §6

diabetic mice [3] = assay: IENF density in isolated paw skin tissue in STZ Type I diabetes model; format: in vivo, Swiss Webster mice
Protocol: as §1, §2, §3, §4
Paw skin tissue was evaluated for IENF density in some cases.
as §6

diabetic mice [4] = assay: Systemic indices of diabetes (body weight, blood glucose, HbA1c) in STZ Type I diabetes model; format: in vivo, Swiss Webster mice; settings: Part A, treatment from the outset
Protocol: as §1, §2, §3, §4
Insulin was supplied by an implanted insulin pellet replaced monthly as needed (LinBit™, LinShin, Canada) and the test compounds were supplied by oral gavage. […]

diabetic mice [5] = assay: Object recognition test (memory) in STZ Type I diabetes model; format: in vivo, Swiss Webster mice; settings: Part A (treatment from onset), weeks 10 and 16
Protocol: as §1, §2, §3
PART B (7-8 weeks) • Control+vehicle • Diabetic+vehicle • Diabetic+NSI-150 • Diabetic+NSI-182 • Diabetic+NSI-183 • Diabetic+NSI-189 […]

diabetic mice [6] = assay: MNCV (large motor fiber function) in STZ Type I diabetes model; format: in vivo, Swiss Webster mice
Protocol: as §1, §2, §3, §4, §5, §6

diabetic mice [7] = assay: Paw thermal response latency (paw response to heat) in STZ Type I diabetes model; format: in vivo, Swiss Webster mice
Protocol: as §1, §2, §3, §4, §5, §6

diabetic mice [8] = assay: Paw tactile response threshold by manual von Frey filament (tactile allodynia) in STZ Type I diabetes model; format: in vivo, Swiss Webster mice
Protocol: as §1, §2, §3, §4, §5, §6

diabetic mice [9] = assay: Corneal nerve density (small fiber pathology) in STZ Type I diabetes model; format: in vivo, Swiss Webster mice
Protocol: as §1, §2, §3, §4, §5, §6

[10] = system: db/db (BKS.Cg-Dock7^m+/+Lepr^db/J) mice; assay: Thermal hypoalgesia in Type II diabetes model; format: in vivo; settings: after 17-22 weeks of treatment
Description: (§7) Type II diabetes was modeled by db/db (BKS.Cg-Dock7^m+/+Lepr^db/J) mice. These mice were maintained in a manner similar to that set forth in Example 1.

[11] = system: db/db (BKS.Cg-Dock7^m+/+Lepr^db/J) mice; assay: MNCV in Type II diabetes model; format: in vivo; settings: after 17-22 weeks of treatment
Description: as §7

[12] = system: db/db (BKS.Cg-Dock7^m+/+Lepr^db/J) mice; assay: Tactile allodynia in Type II diabetes model; format: in vivo; settings: after 17-22 weeks of treatment
Description: as §7

[13] = Part A (treatment from onset of diabetes), end of study period
[14] = Part A (treatment from onset), measured 24 hours after the last treatment
[15] = Part A (treatment from onset), distal regions of small sensory fibers
[16] = Part A (treatment from onset), more proximal regions
[17] = Part B (treatment after 7-8 weeks of diabetes)

Compound	reduction of nerve density in the sub-epidermal nerve plexus (diabetic mice [2]; Part A (treatment from onset))	reduction of IENF density in isolated tissue (diabetic mice [3]; Part A (treatment from onset))	MNCV slowing (diabetic mice [6]; [13])	paw thermal hypoalgesia (diabetic mice [7]; Part A (treatment from onset))	paw tactile allodynia (diabetic mice [8]; [14])	loss of corneal nerve density in Bowman's layer (diabetic mice [9]; [15])	loss of corneal nerve density in the stroma (diabetic mice [9]; [16])	paw thermal hypoalgesia (diabetic mice [7]; [17])	paw tactile allodynia (diabetic mice [8]; [17])	loss of corneal nerve density in Bowman's layer (diabetic mice [9]; [17])	loss of corneal nerve density in the stroma (diabetic mice [9]; [17])	Barnes maze long-term retention (diabetic mice [1])	Barnes maze other parameters (initial acquisition, reinforced learning, short-term retention) (diabetic mice [1])	other results
insulin [reference compound]	prevented	prevented	prevented	prevents this	attenuated	prevented	prevented							Barnes maze impairments (initial acquisition and long-term retention) (diabetic mice [1]; Part A, insulin pellet): prevented all of this; hyperglycemia (diabetic mice [4]): reduced hyperglycemia; weight gain (diabetic mice [4]): partially restored weight gain; HbA1c levels (diabetic mice [4]; terminal): reduced HbA1c levels; object recognition: impaired short-term memory (diabetic mice [5]): not prevented
O=C(NCc1nc2ccccn2c1NCC1CCCO1)Oc1ccccc1 (centres unmarked) [NSI-182]								did not	did not	protective	no protective effect			
NC(=O)C1CCCN1C(=O)c1cccnc1NCC1CCCCC1 (centres unmarked) [NSI-158]	attenuated	attenuated	mild attenuation of MNCV slowing	prevented paw thermal hypoalgesia	attenuated tactile allodynia	no protective effect						improved long-term retention	without altering the other parameters	
CC(C)CCNc1ncccc1C(=O)N1CCN(Cc2ccccc2)CC1 [NSI-189]	attenuated	attenuated	mild attenuation of MNCV slowing	prevented paw thermal hypoalgesia	attenuated tactile allodynia	attenuated the loss	attenuated this loss	prevented progression of paw thermal hypoalgesia	partially reversed paw tactile allodynia	protective	protective	improved long-term retention	without altering the other parameters	progressive development of thermal hypoalgesia [10]: significantly reversed; reduction of nerve density in the sub-epidermal nerve plexus (diabetic mice [2]; [17]): protective; progressive development of MNCV slowing [11]: significantly reversed; reduction of IENF density in isolated tissue (diabetic mice [3]; [17]): reversed; progressive development of tactile allodynia [12]: significantly reversed; MNCV slowing (diabetic mice [6]; [17]): partially reversed MNCV slowing
O=C(COc1ccccc1)NCc1nc2ccccn2c1NCC1CCCO1 (centres unmarked) [NSI-183]								did not	did not	protective	no protective effect			
CCN(CCNC(=O)c1cccnc1NCCC(C)C)Cc1cccnc1 [NSI-190]	attenuated		mild attenuation of MNCV slowing	prevented paw thermal hypoalgesia	attenuated tactile allodynia	no protective effect	attenuated this loss					improved long-term retention	without altering the other parameters	object recognition: impaired short-term memory (diabetic mice [5]): prevented this memory loss
C=CCNC(=O)c1cccnc1NCc1ccccc1OC [NSI-150]								did not	did not		no protective effect			
